Results: paper PMC5376172, “Identification and use of an alkane transporter plug-in for applications in biocatalysis and whole-cell biosensing of alkanes” (Scientific Reports, 2014)

Tests used:
AlkL = molecular target: T1, AlkL (Ectopseudomonas oleovorans, UniProt Q00595); experiment: whole-cell alkane uptake by GC and coupled AlkB oxidation, with and without alkL; assay type: cell-based; settings: transport into E. coli; 15 min incubation for direct uptake; whole cells
T1 construct: full-length, untagged, from pSTBFGL (palkB promoter) in E. coli DH1 / HB101 with AlkBFGT
T1 sequence (Q00595 28-230): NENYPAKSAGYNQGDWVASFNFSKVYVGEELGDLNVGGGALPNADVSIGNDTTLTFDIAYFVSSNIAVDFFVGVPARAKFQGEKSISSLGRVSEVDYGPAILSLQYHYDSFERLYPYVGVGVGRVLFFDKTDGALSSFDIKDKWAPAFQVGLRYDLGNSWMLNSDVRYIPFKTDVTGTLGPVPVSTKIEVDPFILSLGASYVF

[1] = molecular target: T2, alkane hydroxylase complex (AlkB, AlkG, AlkT) (Ectopseudomonas oleovorans, UniProt P12691); experiment: whole-cell bio-oxidation, GC-FID of products; assay type: cell-based; settings: E. coli DH1 / HB101 whole cells; DCPK inducer
T2 construct: integral membrane AlkB with electron transfer partners, co-expressed from pSTBFG(L) in whole E. coli cells; alkF also on plasmid; with Rubredoxin-2; Rubredoxin-NAD(+) reductase
T2 sequence (P12691 1-401): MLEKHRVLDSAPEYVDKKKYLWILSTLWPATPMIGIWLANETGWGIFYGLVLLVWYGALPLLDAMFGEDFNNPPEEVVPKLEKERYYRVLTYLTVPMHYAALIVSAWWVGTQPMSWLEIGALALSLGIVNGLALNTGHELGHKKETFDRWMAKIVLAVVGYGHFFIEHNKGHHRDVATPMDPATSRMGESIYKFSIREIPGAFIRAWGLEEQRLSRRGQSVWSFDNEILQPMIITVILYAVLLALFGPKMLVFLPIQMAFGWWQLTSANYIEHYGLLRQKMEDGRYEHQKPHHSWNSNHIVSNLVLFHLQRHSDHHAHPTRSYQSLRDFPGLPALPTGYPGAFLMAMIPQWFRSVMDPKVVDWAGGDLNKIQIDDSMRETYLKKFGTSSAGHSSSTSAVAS
T2 sequence (P00272 2-173 partner): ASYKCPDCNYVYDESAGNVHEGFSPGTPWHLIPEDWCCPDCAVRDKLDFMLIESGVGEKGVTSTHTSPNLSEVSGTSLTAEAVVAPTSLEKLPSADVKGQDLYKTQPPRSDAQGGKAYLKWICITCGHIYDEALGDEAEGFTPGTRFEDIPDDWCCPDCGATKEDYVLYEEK

SMILES | whole-cell alkane uptake by GC and coupled AlkB oxidation, with and without alkL (AlkL) | whole-cell bio-oxidation, GC-FID of products [1]
CCCCCCCCCCCC [n-dodecane] | E.coli strains expressing alkL were also tested for a direct measurement of n-dodecane uptake | 
CCCCCCCC [n-octane] |  | Oxidised products of n-octane were detected in all host cells containing either pSTBFG or pSTBFGL
